Reference: ChEMBL document CHEMBL5058642, “Data for DCP probe TP-051” (2022)

Columns and labels:
[1] = target: Neuromedin-K receptor (Homo sapiens) (UniProt P29371); experiment: Tachykinin NK3 Eurofins-Panlabs radioligand binding assay; parameters: ligand concentration 0.8 nM; conditions: Compound concentration 10.0 uM
D(3) dopamine receptor = D(3) dopamine receptor (Homo sapiens, UniProt P35462); experiment: GPCRScan assay: inhibition of D3; parameters: radioligand conc. used [nm] 0.5 – 1.8, parental cells HEKT
D(4) dopamine receptor = D(4) dopamine receptor (Homo sapiens, UniProt P21917); experiment: GPCRScan assay: inhibition of D4; parameters: radioligand conc. used [nm] 0.6 – 1.7, parental cells Stable HEK
[2] = target: Prostaglandin G/H synthase 1 (Homo sapiens) (UniProt P23219); experiment: Inhibition of Cyclooxygenase COX-1 at compound concentration of 10.0 uM in the Eurofins-Panlabs enzyme assay (Eurofins_assay_116020); conditions: Compound concentration 10.0 uM
Sequence of Prostaglandin G/H synthase 1 (Homo sapiens) (P23219 whole entry): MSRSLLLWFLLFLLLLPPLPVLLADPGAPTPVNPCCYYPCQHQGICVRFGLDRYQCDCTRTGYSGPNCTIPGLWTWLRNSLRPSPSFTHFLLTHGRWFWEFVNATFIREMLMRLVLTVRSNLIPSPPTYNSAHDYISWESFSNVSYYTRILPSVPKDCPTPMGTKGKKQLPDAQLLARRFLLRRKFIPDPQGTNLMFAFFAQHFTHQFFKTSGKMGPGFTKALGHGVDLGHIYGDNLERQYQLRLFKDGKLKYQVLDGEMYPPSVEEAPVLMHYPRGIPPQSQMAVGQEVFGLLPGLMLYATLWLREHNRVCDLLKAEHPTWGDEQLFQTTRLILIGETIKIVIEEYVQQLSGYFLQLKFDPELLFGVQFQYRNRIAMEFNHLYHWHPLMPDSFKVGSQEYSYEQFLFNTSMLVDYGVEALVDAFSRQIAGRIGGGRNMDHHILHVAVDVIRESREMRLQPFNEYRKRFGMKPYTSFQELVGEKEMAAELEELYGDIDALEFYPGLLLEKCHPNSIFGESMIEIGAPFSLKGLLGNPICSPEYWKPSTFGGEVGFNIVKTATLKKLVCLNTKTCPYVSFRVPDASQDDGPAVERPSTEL

[3] = target: Interstitial collagenase (Homo sapiens) (UniProt P03956); experiment: Inhibition of Peptidase, Matrix Metalloproteinase-1 (MMP-1) at 10 µM in the Eurofins-Panlabs enzyme assay (Eurofins_assay_114110); conditions: Compound concentration 10.0 uM
Homo sapiens [4] = organism: Homo sapiens; experiment: Inhibition of Phosphodiesterase PDE4 at compound concentration of 10.0 uM in the Eurofins-Panlabs enzyme assay (Eurofins_assay_154000); type: protein assay; parameters: substrate with concentration 1.01 uM [3 H]cAMP + cAMP, incubation time 20 min, incubation temperature 25 C; conditions: Compound concentration 10.0 uM
[5] = target: Mitogen-activated protein kinase 3 (Homo sapiens) (UniProt P27361); experiment: Inhibition of Protein Serine/Threonine Kinase, MAPK3 (ERK1) at 10 µM in the Eurofins-Panlabs enzyme assay (Eurofins_assay_171000); conditions: Compound concentration 10.0 uM
Sequence of Mitogen-activated protein kinase 3 (Homo sapiens) (P27361 whole entry): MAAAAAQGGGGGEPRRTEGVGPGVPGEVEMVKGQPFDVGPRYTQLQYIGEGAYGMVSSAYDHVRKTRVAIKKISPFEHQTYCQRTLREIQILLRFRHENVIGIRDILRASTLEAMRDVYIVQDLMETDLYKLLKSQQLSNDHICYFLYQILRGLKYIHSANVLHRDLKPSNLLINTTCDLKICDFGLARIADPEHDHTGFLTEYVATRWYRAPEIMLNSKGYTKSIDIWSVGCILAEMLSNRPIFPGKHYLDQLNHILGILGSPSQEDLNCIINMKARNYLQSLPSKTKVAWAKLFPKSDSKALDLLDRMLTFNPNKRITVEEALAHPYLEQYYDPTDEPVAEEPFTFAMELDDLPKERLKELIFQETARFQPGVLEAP

[6] = target: T1, 5-hydroxytryptamine receptor 3A (Homo sapiens) (UniProt P46098); experiment: Inhibition of Serotonin (5-Hydroxytryptamine) 5-HT3 at 10 µM in the Eurofins-Panlabs radioligand binding assay (Eurofins_assay_271910); parameters: ligand concentration 0.69 nM; conditions: Compound concentration 10.0 uM
T1 sequence (whole entry): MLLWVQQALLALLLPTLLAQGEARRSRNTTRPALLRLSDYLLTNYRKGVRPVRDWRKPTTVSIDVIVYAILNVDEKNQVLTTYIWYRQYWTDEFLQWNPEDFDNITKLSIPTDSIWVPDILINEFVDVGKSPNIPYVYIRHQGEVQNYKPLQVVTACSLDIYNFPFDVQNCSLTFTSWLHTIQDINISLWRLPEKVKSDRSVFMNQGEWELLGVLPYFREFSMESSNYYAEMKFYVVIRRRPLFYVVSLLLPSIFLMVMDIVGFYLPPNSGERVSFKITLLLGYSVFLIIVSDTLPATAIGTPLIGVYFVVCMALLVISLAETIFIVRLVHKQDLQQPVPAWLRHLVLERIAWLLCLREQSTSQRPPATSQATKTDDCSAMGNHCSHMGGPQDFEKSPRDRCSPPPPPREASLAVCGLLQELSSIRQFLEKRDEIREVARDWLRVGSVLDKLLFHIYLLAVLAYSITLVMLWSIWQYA

Bos taurus = organism: Bos taurus; experiment: Protein Serine/Threonine Kinase, PKA, Non-Selective Eurofins-Panlabs enzyme assay; type: protein-complex assay; parameters: substrate with concentration 370 µg/mL Histone Type III-S, incubation time 15 min, incubation temperature 25 °C; conditions: Compound concentration 10.0 uM
Rattus norvegicus [7] = organism: Rattus norvegicus; experiment: Protein Serine/Threonine Kinase, PKC, Non-Selective Eurofins-Panlabs enzyme assay; conditions: Compound concentration 10.0 uM
[8] = target: Vasopressin V2 receptor (Homo sapiens) (UniProt P30518); experiment: Inhibition of Vasopressin V2 at 10 µM in the Eurofins-Panlabs radioligand binding assay (Eurofins_assay_287610); parameters: ligand concentration 4 nM; conditions: Compound concentration 10.0 uM
Sequence of Vasopressin V2 receptor (Homo sapiens) (P30518 whole entry): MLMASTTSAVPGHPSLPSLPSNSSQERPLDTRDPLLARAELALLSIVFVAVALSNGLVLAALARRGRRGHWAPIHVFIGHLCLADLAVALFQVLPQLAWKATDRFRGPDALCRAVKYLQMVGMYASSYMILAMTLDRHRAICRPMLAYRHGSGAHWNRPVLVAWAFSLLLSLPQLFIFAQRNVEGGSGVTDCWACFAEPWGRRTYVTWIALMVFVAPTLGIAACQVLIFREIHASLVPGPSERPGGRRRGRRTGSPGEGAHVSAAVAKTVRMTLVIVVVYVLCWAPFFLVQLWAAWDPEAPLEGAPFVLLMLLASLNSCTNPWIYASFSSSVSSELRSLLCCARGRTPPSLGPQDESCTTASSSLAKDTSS

[9] = target: Neprilysin (Homo sapiens) (UniProt P08473); experiment: Peptidase, Metalloproteinase, Neutral Endopeptidase Eurofins-Panlabs enzyme assay; conditions: Compound concentration 10.0 uM
Sequence of Neprilysin (Homo sapiens) (P08473 whole entry): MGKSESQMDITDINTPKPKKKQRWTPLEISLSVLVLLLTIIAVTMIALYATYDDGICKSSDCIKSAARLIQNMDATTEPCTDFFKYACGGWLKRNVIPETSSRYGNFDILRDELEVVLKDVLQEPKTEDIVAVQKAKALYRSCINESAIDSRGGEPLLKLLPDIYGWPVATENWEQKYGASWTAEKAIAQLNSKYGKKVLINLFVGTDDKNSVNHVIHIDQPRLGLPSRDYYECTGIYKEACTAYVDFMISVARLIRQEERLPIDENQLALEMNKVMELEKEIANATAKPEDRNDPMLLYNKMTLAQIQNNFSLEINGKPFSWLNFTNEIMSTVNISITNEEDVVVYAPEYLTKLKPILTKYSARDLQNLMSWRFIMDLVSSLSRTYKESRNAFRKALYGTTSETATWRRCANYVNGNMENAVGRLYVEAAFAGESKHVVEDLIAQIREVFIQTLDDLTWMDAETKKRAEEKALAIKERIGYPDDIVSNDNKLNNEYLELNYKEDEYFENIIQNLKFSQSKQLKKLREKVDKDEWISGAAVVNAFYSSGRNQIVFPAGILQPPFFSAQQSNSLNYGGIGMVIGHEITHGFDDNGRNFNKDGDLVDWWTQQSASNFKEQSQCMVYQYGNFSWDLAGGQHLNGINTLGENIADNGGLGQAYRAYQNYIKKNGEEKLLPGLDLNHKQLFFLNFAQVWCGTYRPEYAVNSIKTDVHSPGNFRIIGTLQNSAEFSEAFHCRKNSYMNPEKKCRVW

Homo sapiens [10] = organism: Homo sapiens; experiment: Protein Serine/Threonine Kinase, MAPK14 (p38α) Eurofins-Panlabs enzyme assay; parameters: substrate with concentration 10 µg/mL Myelin Basic Protein (MBP), incubation time 60 min, incubation temperature 25 °C; conditions: Compound concentration 10.0 uM
[11] = target: Epidermal growth factor receptor (Homo sapiens) (UniProt P00533); experiment: Protein Tyrosine Kinase, EGF Receptor Eurofins-Panlabs enzyme assay; parameters: substrate with concentration 10 µg/mL Poly(Glu:Tyr), incubation time 60 min, incubation temperature 25 °C; conditions: Compound concentration 10.0 uM
[12] = target: Cannabinoid receptor 1 (Homo sapiens) (UniProt P21554); experiment: Inhibition of Cannabinoid CB1 at compound concentration of 10.0 uM in the Eurofins-Panlabs radioligand binding assay (Eurofins_assay_217050); parameters: ligand concentration 2 nM; conditions: Compound concentration 10.0 uM
Rattus norvegicus [13] = organism: Rattus norvegicus; experiment: ATPase, Ca2+ Eurofins-Panlabs enzyme assay; conditions: Compound concentration 10.0 uM
Canis lupus familiaris = organism: Canis lupus familiaris; experiment: ATPase, Na+/K+ Eurofins-Panlabs enzyme assay; conditions: Compound concentration 10.0 uM
[14] = target: 3-hydroxy-3-methylglutaryl-coenzyme A reductase (Homo sapiens) (UniProt P04035); experiment: HMG-CoA Reductase Eurofins-Panlabs enzyme assay; conditions: Rattus norvegicus; Compound concentration 10.0 uM
[15] = target: Coagulation factor X (Homo sapiens) (UniProt P00742); experiment: Peptidase, Factor Xa Eurofins-Panlabs enzyme assay; parameters: substrate with concentration; conditions: Compound concentration 10.0 uM
[16] = target: Matrilysin (Homo sapiens) (UniProt P09237); experiment: Peptidase, Matrix Metalloproteinase-7 (MMP-7) Eurofins-Panlabs enzyme assay; parameters: substrate with concentration; conditions: Compound concentration 10.0 uM
[17] = target: Collagenase 3 (Homo sapiens) (UniProt P45452); experiment: Peptidase, Matrix Metalloproteinase-13 (MMP-13) Eurofins-Panlabs enzyme assay; parameters: substrate with concentration; conditions: Compound concentration 10.0 uM
[18] = target: Prothrombin (Homo sapiens) (UniProt P00734); experiment: Peptidase, Thrombin Eurofins-Panlabs enzyme assay; parameters: substrate with concentration; conditions: Compound concentration 10.0 uM
[19] = target: Disintegrin and metalloproteinase domain-containing protein 17 (Homo sapiens) (UniProt P78536); experiment: Peptidase, Tumor Necrosis Factor-alpha Converting Enzyme (TACE) Eurofins-Panlabs enzyme assay; parameters: substrate with concentration; conditions: Compound concentration 10.0 uM
Sequence of Disintegrin and metalloproteinase domain-containing protein 17 (Homo sapiens) (P78536 whole entry, the tested form may be a part): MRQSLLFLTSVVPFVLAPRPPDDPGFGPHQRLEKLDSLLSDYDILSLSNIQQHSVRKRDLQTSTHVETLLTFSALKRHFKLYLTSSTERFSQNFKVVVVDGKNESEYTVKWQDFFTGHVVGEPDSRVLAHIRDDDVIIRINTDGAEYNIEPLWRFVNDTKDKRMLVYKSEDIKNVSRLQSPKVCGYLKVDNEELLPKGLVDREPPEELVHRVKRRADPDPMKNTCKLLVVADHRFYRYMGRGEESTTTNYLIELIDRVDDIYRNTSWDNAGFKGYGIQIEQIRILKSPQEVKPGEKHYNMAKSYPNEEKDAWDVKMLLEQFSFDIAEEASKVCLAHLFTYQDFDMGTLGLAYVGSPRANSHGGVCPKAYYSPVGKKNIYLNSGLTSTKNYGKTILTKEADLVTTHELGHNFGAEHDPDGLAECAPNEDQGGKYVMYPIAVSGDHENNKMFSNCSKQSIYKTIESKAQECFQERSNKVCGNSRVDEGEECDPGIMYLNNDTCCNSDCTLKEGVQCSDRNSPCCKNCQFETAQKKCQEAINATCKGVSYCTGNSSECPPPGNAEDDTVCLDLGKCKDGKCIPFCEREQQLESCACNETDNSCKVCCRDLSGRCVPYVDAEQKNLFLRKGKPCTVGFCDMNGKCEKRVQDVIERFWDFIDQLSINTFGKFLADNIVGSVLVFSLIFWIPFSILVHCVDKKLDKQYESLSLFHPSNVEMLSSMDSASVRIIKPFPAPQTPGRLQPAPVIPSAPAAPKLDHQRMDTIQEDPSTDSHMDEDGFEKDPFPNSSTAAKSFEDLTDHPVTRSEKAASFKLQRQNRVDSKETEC

[20] = target: Ca2+/calmodulin-dependent protein kinase II (CaM kinase II) (Rattus norvegicus) (UniProt P11275+P08413+P15791+P11730); experiment: Protein Serine/Threonine Kinase, Ca2+/Calmodulin-Dep.II Eurofins-Panlabs enzyme assay; conditions: Compound concentration 10.0 uM
[21] = target: Cyclin-dependent kinase 1/cyclin B (Homo sapiens) (UniProt P06493+P14635+Q8WWL7+O95067); experiment: Protein Serine/Threonine Kinase, cdk1/Cyclin B Eurofins-Panlabs enzyme assay; type: protein-complex assay; conditions: Compound concentration 10.0 uM
[22] = target: Glycogen synthase kinase-3 beta (Homo sapiens) (UniProt P49841); experiment: Protein Serine/Threonine Kinase, GSK-3β Eurofins-Panlabs enzyme assay; parameters: substrate with concentration; conditions: Compound concentration 10.0 uM
Sequence of Glycogen synthase kinase-3 beta (Homo sapiens) (P49841 whole entry, looked up): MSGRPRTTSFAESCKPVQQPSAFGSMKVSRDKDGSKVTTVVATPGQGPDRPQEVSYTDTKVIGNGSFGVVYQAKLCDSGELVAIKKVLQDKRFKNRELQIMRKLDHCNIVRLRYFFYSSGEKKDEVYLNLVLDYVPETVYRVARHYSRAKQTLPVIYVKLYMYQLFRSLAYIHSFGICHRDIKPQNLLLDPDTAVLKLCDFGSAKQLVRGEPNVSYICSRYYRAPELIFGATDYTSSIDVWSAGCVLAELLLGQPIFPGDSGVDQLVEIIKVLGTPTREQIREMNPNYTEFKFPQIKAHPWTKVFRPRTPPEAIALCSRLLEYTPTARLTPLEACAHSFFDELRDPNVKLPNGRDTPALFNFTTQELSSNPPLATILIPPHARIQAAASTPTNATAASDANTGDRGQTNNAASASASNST

[23] = target: Protein phosphatase 3 catalytic subunit alpha (Homo sapiens) (UniProt Q08209); experiment: Protein Serine/Threonine Phosphatase, Calcineurin, PP2B Eurofins-Panlabs enzyme assay; conditions: Compound concentration 10.0 uM
[24] = target: Receptor tyrosine-protein kinase erbB-2 (Homo sapiens) (UniProt P04626); experiment: Protein Tyrosine Kinase, ERBB2 (HER2) Eurofins-Panlabs enzyme assay; conditions: Compound concentration 10.0 uM
[25] = target: Thromboxane-A synthase (Homo sapiens) (UniProt P24557); experiment: Thromboxane Synthase Eurofins-Panlabs enzyme assay; conditions: Compound concentration 10.0 uM
[26] = target: 5-hydroxytryptamine receptor 2C (Homo sapiens) (UniProt P28335); conditions: Compound concentration 10.0 uM
Sequence of 5-hydroxytryptamine receptor 2C (Homo sapiens) (P28335 whole entry): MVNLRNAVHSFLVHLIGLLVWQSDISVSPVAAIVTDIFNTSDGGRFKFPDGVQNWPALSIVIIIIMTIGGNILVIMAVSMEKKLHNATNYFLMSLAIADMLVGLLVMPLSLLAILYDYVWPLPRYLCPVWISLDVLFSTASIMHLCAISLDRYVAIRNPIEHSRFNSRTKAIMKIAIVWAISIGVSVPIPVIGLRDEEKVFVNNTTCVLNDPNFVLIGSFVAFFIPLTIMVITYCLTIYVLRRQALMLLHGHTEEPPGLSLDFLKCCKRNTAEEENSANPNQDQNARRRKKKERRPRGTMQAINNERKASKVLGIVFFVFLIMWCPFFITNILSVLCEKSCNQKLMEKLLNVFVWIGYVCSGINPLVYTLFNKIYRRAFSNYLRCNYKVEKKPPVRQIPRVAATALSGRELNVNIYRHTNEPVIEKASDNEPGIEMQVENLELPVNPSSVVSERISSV

[27] = target: 5-hydroxytryptamine receptor 6 (Homo sapiens) (UniProt P50406); conditions: Compound concentration 10.0 uM
[28] = target: Sodium-dependent noradrenaline transporter (Homo sapiens) (UniProt P23975); conditions: Compound concentration 10.0 uM
[29] = target: Muscarinic acetylcholine receptor M3 (Homo sapiens) (UniProt P20309); conditions: Compound concentration 10.0 uM
Rattus norvegicus [30] = organism: Rattus norvegicus; conditions: Compound concentration 10.0 uM
[31] = target: Alpha-1D adrenergic receptor (Homo sapiens) (UniProt P25100); conditions: Compound concentration 10.0 uM
Sequence of Alpha-1D adrenergic receptor (Homo sapiens) (P25100 whole entry): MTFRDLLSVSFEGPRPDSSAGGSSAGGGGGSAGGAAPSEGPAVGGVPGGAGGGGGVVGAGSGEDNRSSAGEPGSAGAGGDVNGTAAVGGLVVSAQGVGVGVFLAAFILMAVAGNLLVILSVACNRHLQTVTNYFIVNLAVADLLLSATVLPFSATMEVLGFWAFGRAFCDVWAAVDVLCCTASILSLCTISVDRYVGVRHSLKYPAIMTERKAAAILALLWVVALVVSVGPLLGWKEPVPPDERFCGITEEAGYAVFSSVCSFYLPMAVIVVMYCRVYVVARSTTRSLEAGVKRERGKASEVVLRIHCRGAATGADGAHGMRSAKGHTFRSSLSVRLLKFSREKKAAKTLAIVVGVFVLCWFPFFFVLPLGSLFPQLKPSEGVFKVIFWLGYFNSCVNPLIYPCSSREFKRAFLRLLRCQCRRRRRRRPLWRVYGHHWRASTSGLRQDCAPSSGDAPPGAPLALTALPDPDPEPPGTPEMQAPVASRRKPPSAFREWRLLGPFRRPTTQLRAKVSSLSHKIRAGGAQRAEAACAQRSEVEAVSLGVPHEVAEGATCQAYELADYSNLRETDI

[32] = target: cGMP-specific 3',5'-cyclic phosphodiesterase (Homo sapiens) (UniProt O76074); conditions: Compound concentration 10.0 uM

Sequence of Neuromedin-K receptor (Homo sapiens) (P29371 whole entry): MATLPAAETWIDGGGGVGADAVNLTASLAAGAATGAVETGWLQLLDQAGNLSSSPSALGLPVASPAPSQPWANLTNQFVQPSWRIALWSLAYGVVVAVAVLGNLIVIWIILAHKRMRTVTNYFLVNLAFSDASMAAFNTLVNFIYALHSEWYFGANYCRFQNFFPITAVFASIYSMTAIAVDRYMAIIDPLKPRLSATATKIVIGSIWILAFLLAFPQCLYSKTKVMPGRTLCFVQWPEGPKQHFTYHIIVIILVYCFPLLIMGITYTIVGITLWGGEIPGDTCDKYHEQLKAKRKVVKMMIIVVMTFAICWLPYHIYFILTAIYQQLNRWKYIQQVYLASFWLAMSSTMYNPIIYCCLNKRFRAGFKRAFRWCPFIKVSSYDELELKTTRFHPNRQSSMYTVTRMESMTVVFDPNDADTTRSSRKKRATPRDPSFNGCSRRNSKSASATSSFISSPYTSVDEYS

Work on `Cc1cc(OC2CCS(=O)(=O)CC2)cc(C)c1-c1cccc(COc2ccc(C(=O)O)c(F)c2)c1` yielded an inhibition [1] of 10%.

Work on `Cc1cc(OC2CCS(=O)(=O)CC2)cc(C)c1-c1cccc(COc2ccc(CCC(=O)O)c(F)c2)c1` yielded a Ki (D(3) dopamine receptor) of 0.925 µM, a Ki (D(4) dopamine receptor) of 1.23 µM and an inhibition [2] of 14%. It also gave an inhibition [3] of 2%, an inhibition (Homo sapiens [4]) of 26% and an inhibition [5] of 30%. It also gave an inhibition [6] of -3%, an inhibition (Bos taurus) of 5% and an inhibition (Rattus norvegicus [7]) of -8%. The inhibition [8] was 0%, the inhibition [9] was 4% and the inhibition (Homo sapiens [10]) was 60%. For the same molecule, the inhibition [11] was 61%, the inhibition [12] was 8% and the inhibition (Rattus norvegicus [13]) was -1%. It also gave an inhibition (Canis lupus familiaris) of 4%, an inhibition [14] of -5% and an inhibition [15] of 2%. It also gave an inhibition [16] of 1%, an inhibition [17] of 5% and an inhibition [18] of -1%. For the same molecule, the inhibition [19] was 36%, the inhibition [20] was 44% and the inhibition [21] was 14%. The inhibition [22] was 19%, the inhibition [23] was 10% and the inhibition [24] was -9%. The inhibition [25] was 64%, the inhibition [26] was 14.1% and the inhibition [27] was -7.86%. The inhibition [28] was 19.1%, the inhibition [29] was -0.18% and the inhibition (Rattus norvegicus [30]) was -0.04%. The inhibition [31] was 50.8% and the inhibition [32] was -6%.
